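Following 48 hours of exposure in 96-well plates, responses at five concentrations were used to interpolate endpoints linearly. Definition used: TGI = concentration required for complete inhibition of growth.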
How the values were obtained:
Experiment in all cases: DTP human tumour cell line panel, 48 h
786-0 renal = tested on: 786-0 renal
A498 renal = tested on: A498 renal
CAKI-1 renal = tested on: CAKI-1 renal
HCC-2998 colon = tested on: HCC-2998 colon
HCT-116 colon = tested on: HCT-116 colon
HCT-15 colon = tested on: HCT-15 colon
OVCAR-3 ovarian = tested on: OVCAR-3 ovarian
SF-539 CNS = tested on: SF-539 CNS
SK-MEL-2 melanoma = tested on: SK-MEL-2 melanoma
SK-MEL-28 melanoma = tested on: SK-MEL-28 melanoma
U251 CNS = tested on: U251 CNS

Row | Compound | TGI (786-0 renal) [µM] | TGI (A498 renal) [µM] | TGI (CAKI-1 renal) [µM] | TGI (HCC-2998 colon) [µM] | TGI (HCT-116 colon) [µM] | TGI (HCT-15 colon) [µM] | TGI (OVCAR-3 ovarian) [µM] | TGI (SF-539 CNS) [µM] | TGI (SK-MEL-2 melanoma) [µM] | TGI (SK-MEL-28 melanoma) [µM] | TGI (U251 CNS) [µM]
1 | CN1CC[C@]2(c3cccc(O)c3)CC(=O)/C(=C/c3ccccc3)[C@@H]1C2 | 7.12 | 17 | 6.04 | 7.16 | 5.94 | 4.93 | 4.43 | 6.1 | 13 | 13.4 | 8.36
2 | CC(C)(CO)CNc1nc(N)nc(Cl)c1/C=N/O | > 100 | > 100 | > 100 | > 100 | > 100 | > 100 | > 100 | > 100 | > 100 | > 100 | > 100
3 | CCOC(=O)c1c2cccccc-2nc1Nc1cccc2c(C)ccnc12 | > 10 | > 10 | > 10 | > 10 | > 10 | > 10 | > 10 | > 10 | > 10 | > 10 | > 10
4 | COc1ccc(C(=O)NCCN(C)C)c2nc3ccccc3cc12 | 12.1 | 3.76 | 7.59 | 8.34 | 5.25 | 7.22 | 9.93 | 8.16 | 7.46 | 7.11 | 7.62
5 | O=C(CC(=O)Nc1ccccc1)NNC(Sc1ccccc1)c1cc(N=Nc2ccc(Br)cc2)ccc1O (centres undefined) | > 10 | 5.84 | > 10 | > 10 | 2.81 | > 10 | > 10 | 7.91 | > 10 | > 10 | > 10
6 | O=C1C(=Nc2ccc(Nc3ccccc3)cc2)Oc2ccccc21 | 3.37 | 21 | 7.58 | 23.4 | 3.18 | 13.2 | 4.42 | 8.41 | 14.4 | 19.3 | 4.27
7 | CO/N=C(/C(=O)OC)c1ccccc1COc1ccccc1C(F)(F)F | > 100 | > 100 | > 100 | > 100 | > 100 | > 100 | > 100 | 59.2 | 73.2 | > 100 | > 100
8 | CC(C)(C)OC(=O)NC(CSSCC(NC(=O)OC(C)(C)C)C(=O)O)C(=O)O (centres undefined) | > 100 | > 100 | > 100 | > 100 | > 100 | > 100 | > 100 | > 100 | > 100 | > 100 | > 100
9 | c1ccc(C2=NOC(c3ccccc3)N2C23CC4CC(CC(C4)C2)C3)cc1 (centres undefined) | > 10 | > 10 | > 10 | > 10 | > 10 | > 10 | > 10 | > 10 | > 10 | > 10 | > 10
10 | CC(C)Oc1cccc(N2C(=NCc3c[nH]c4ccccc34)Nc3ccncc3S2(=O)=O)c1 | > 100 | > 100 | > 100 | 97.9 | > 100 | > 100 | 56.1 | > 100 | 51.3 | > 100 | > 100
11 | Nc1ncnc2c1ccn2C/C=C/CO | > 100 | > 100 | > 100 | > 100 | > 100 | > 100 | > 100 | > 100 | > 100 | > 100 | > 100
12 | O=[N+]([O-])c1cc2oc(CSc3ccccc3)nc2cc1Cl | > 100 | 59.2 | > 100 | 64.5 | > 100 | > 100 | 73.9 | > 100 | 51.4 | > 100 | 66.6
13 | COc1cc(O)c2c(=O)c(OC)c(-c3ccc(OC)c(O)c3)oc2c1 | > 100 | 15.3 | 74.4 | > 100 | > 100 | > 100 | > 100 | > 100 | > 100 | > 100 | > 100
14 | N#CC(c1ccccc1)N(CCOCCOCCN(C(=O)c1ccccc1)C(C#N)c1ccccc1)C(=O)c1ccccc1 (centres undefined) | > 100 | > 100 | > 100 | > 100 | > 100 | > 100 | > 100 | > 100 | > 100 | > 100 | > 100
15 | Cc1ccc(/C=C2/N=C(N/N=C\C(O)C(O)C(O)C(O)CO)NC2=O)cc1 (centres undefined) | > 100 | > 100 | > 100 | > 100 | > 100 | > 100 | > 100 | > 100 | > 100 | > 100 | > 100
16 | Clc1ccc(C=NC23CC4CC(CC(C4)C2)C3)c(Cl)c1 | > 10 | > 10 | > 10 | > 10 | > 10 | > 10 | > 10 | > 10 | > 10 | > 10 | > 10
17 | C=C1C(=O)[C@@]23CC[C@@H]4[C@@]5(C)CCC[C@@]4(OC5=O)[C@@]2(C)CC[C@@H]1C3 | 2.55 | 11.8 | 2.32 | 5.56 | 2.92 | 2.44 | 3.95 | 6.3 | 8.12 | 10.3 | 7.05
18 | CSc1nc2c(c(N(C)C)n1)C(O)n1c(nc3ccccc31)S2 (centres undefined) | > 100 | > 100 | > 100 | > 100 | > 62.1 | > 100 | > 63.4 | 77.2 | > 100 | > 100 | > 55.5
19 | CCOC(=O)C(NC(=O)CC)(N1CCN(c2cc3c(cc2F)c(=O)c(C(=O)O)cn3C2CC2)CC1)C(F)(F)F (centres undefined) | > 100 | > 100 | > 100 | > 100 | > 100 | > 100 | > 100 | > 100 | > 100 | > 100 | > 100
20 | Cc1nc2ccccc2c(-n2cccn2)c1CCn1cccn1 | > 100 | > 100 | > 100 | > 100 | > 100 | > 100 | > 100 | > 100 | > 100 | > 100 | > 100
21 | CC1=C(C#N)c2nc3ccccc3n2C(=O)C1(C)CCO (centres undefined) | > 100 | > 100 | > 100 | > 100 | > 100 | > 100 | > 100 | > 100 | > 100 | > 100 | > 100
22 | Cc1cc(N(C)C)c2ccccc2[n+]1CCCCCCCCCC[n+]1c(C)cc(N(C)C)c2ccccc21 | 19.5 | 14 | 20 | 13.5 | 12.4 | 14.4 | 10.5 | 8.15 | 4.98 | 3.54 | 11.5
23 | O=C(CN1C(=O)CC(c2ccccc2)(c2ccccc2)C1=O)N1CCN(CCO)CC1 | > 100 | > 100 | > 100 | > 100 | > 100 | > 100 | > 100 | > 100 | > 100 | > 100 | > 100
24 | C=CCn1c(=O)ccn(/C(=C/C(=O)OCC)C(=O)OCC)c1=O | 11.7 | 33.3 | 4.19 | 31.8 | > 41.5 | 6.52 | 18.2 | 49.5 | 34.3 | 30.6 | 27.6
25 | COc1cc(Nc2ccc3c(c2)CCC3)nc(OC)n1 | > 100 | > 100 | > 100 | 61.6 | > 100 | > 100 | > 100 | > 100 | > 100 | > 100 | > 100
26 | CCOC(=O)/C(C(C)=O)=C(\OC(C)=O)c1ccncc1C(=O)O | > 100 | > 100 | > 100 | > 100 | > 100 | > 100 | > 100 | > 100 | > 100 | > 100 | > 100
27 | O=c1c2c(no[n+]2[O-])c2ccccc2n1-c1ccccc1 | 9.97 | 22.2 | 6.39 | 20.6 | 6.73 | 8.76 | 19.8 | 16 | 18.8 | 17 | 16.1
28 | Cc1cc(OP2(=O)NCc3ncccc3O2)ccc1Cl (centres undefined) | > 100 | > 100 | > 100 | > 100 | > 100 | > 100 | > 100 | > 100 | > 100 | > 100 | > 100
29 | CCN(CC)c1ccc(/C=C/c2ccnc3ccccc23)cc1 | > 100 | > 100 | > 100 | > 100 | > 100 | > 100 | > 100 | > 100 | > 100 | > 100 | > 100
30 | CN1Cc2c(nc(-c3ccccc3)c[n+]2[O-])N(C)C1 | > 100 | > 100 | > 100 | > 100 | – | > 100 | > 100 | > 100 | > 100 | > 100 | > 100

From PubChem BioAssay (NCI)
